Results as given in patent EP4741380A1, “ISOXAZOLINE COMPOUND AND USE” (priority 2024, dated 2025).
Where two headings read alike, the source gives them in different places.

System: mites
Assay: Mite killing efficacy test with an in vitro model
Conditions: 30 µM drug solution
Procedure: Mite collection: Live mites were gently picked up from a cage box with cotton swabs or small tweezers, 17-26 live mites per group.
Drug treatment and detection method: 100 µL of a drug solution with a different concentration (drug solution prepared by 3% DMSO solution + 97% water and having a target final concentration of 30 µM) was aspirated with a pipette and added to a 24-well plate for each group, ensuring full contact between the drug and the mites. The mites were separately incubated at normal temperature for 5 min, transferred from each plate to another dry 24-well plate with the top sealed, and air-dried for about 1 h. Mite actions were observed, and the number of dead mites/the total number of mites was recorded. Then, the 24-well plate containing the mites was cultured at room temperature and relatively high humidity. The number of dead mites/the total number of mites was counted separately after 1 h, 2 h, 4 h, 6 h, 8 h, 22 h, and 24 h (time points after drug addition), and mite mortality rates were calculated. The project ended 24 h after drug addition.
At a corresponding time point, a mite mortality rate greater than or equal to 90% is denoted as "+++", a mite mortality rate less than 90% and greater than or equal to 50% is denoted as "++", and a mite mortality rate less than 50% is denoted as "+".

[1] = 4 h after drug addition, read-out: Mite Mortality Rate 4 h
[2] = 24 h after drug addition, read-out: Mite Mortality Rate 24 h

SMILES | mortality at 30 µM [1] [%] | mortality at 30 µM [2] [%] | Mite Mortality Rate 4 h (4 h after drug addition) | Mite Mortality Rate 24 h (24 h after drug addition)
Cc1cc(C2=NOC(c3cc(Cl)cc(Cl)c3Cl)(C(F)(F)F)C2)ccc1C(=O)NCC(=O)NC1(C(F)(F)F)CC1 (centres unmarked) [Example 020, 2-methyl-N-(2-oxo-2-((1-(trifluoromethyl)cyclopropyl)amino)ethyl)-4-(5-(2,3,5-trichlorophenyl) -5-(trifluoromethyl)-4,5-dihydroisoxazol-3-yl)benzamide] | < 50 | 50 to 90 | – | –
Cc1cc(C2=NOC(c3cc(Cl)cc(Cl)c3)(C(F)(F)F)C2)ccc1C(=O)NCC(=O)N1CC(F)(C#N)C1 (centres unmarked) [Example 021, N-(2-(3-cyano-3-fluoroazetidin-1-yl)-2-oxoethyl)-4-(5-(3,5-dichlorophenyl)-5-(trifluoromethyl)-4,5-dihydroisoxazol-3-yl)-2-methylbenzamide] | < 50 | < 50 | – | –
Cc1cc(C2=NOC(c3cc(Cl)cc(Cl)c3)(C(F)(F)F)C2)ccc1C(=O)NCC(=O)N1CC(F)(F)C1 (centres unmarked) [Example 022, 4-(5-(3,5-dichlorophenyl)-5-(trifluoromethyl)-4,5-dihydroisoxazol-3-yl)-N-(2-(3,3-difluoroazetidin-1-yl)-2-oxoethyl)-2-methylbenzamide] | < 50 | 50 to 90 | – | –
Cc1cc(C2=NOC(c3cc(Cl)cc(Cl)c3)(C(F)(F)F)C2)ccc1C(=O)NCC(=O)N1CC(C(F)(F)F)C1 (centres unmarked) [Example 023, 4-(5-(3,5-dichlorophenyl)-5-(trifluoromethyl)-4,5-dihydroisoxazol-3-yl)-2-methyl-N-(2-oxo-2-(3-(trifluoromethyl)azetidin-1-yl)ethyl)benzamide] | < 50 | 50 to 90 | – | –
Cc1cc(C2=NOC(c3cc(Cl)cc(Cl)c3)(C(F)(F)F)C2)ccc1C(=O)NCC(=O)NC1(C#N)CC1 (centres unmarked) [Example 024, N-(2-((1-cyanocyclopropyl)amino)-2-oxoethyl)-4-(5-(3,5-dichlorophenyl)-5-(trifluoromethyl)-4,5-dihydroisoxazol-3-yl)-2-methylbenzamide] | < 50 | > 90 | – | –
Cc1cc(C2=NOC(c3cc(Cl)cc(Cl)c3)(C(F)(F)F)C2)ccc1C(=O)NCC(=O)N1CC(F)(C(F)(F)F)C1 (centres unmarked) [Example 025, 4-(5-(3,5-dichlorophenyl)-5-(trifluoromethyl)-4,5-dihydroisoxazol-3-yl)-N-(2-(3-fluoro-3-(trifluoromethyl)azetidin-1-yl)-2-oxoethyl)-2-methylbenzamide] | < 50 | < 50 | – | –
Cc1cc(C2=NOC(c3cc(Cl)cc(Cl)c3)(C(F)(F)F)C2)ccc1C(=O)NCC(=O)N1CC(F)(CF)C1 (centres unmarked) [Example 026, 4-(5-(3,5-dichlorophenyl)-5-(trifluoromethyl)-4,5-dihydroisoxazol-3-yl)-N-(2-(3-fluoro-3-(fluoromethyl)azetidin-1-yl)-2-oxoethyl)-2-methylbenzamide] | 50 to 90 | > 90 | – | –
Cc1cc(C2=NOC(c3cc(F)cc(Cl)c3)(C(F)(F)F)C2)ccc1C(=O)NCC(=O)NC1(C(F)(F)F)CC1 (centres unmarked) [Example 027, 4-(5-(3-chloro-5-fluorophenyl)-5-(trifluoromethyl)-4,5-dihydroisoxazol-3-yl)-2-methyl-N-(2-oxo-2-((1-(trifluoromethyl)cyclopropyl)amino)ethyl)benzamide] | 50 to 90 | > 90 | – | –
Cc1cc(C2=NOC(c3cc(F)c(Cl)c(Cl)c3)(C(F)(F)F)C2)ccc1C(=O)NCC(=O)NC1(C(F)(F)F)CC1 (centres unmarked) [Example 028, 4-(5-(3,4-dichloro-5-fluorophenyl)-5-(trifluoromethyl)-4,5-dihydroisoxazol-3-yl)-2-methyl-N-(2-oxo-2-((1-(trifluoromethyl)cyclopropyl)amino)ethyl)benzamide] | 50 to 90 | > 90 | – | –
Cc1cc(C2=NOC(c3cc(F)cc(C(F)(F)F)c3)(C(F)(F)F)C2)ccc1C(=O)NCC(=O)NC1(C(F)(F)F)CC1 (centres unmarked) [Example 031, 4-(5-(3-fluoro-5-(trifluoromethyl)phenyl)-5-(trifluoromethyl)-4,5-dihydroisoxazol-3-yl)-2-methy 1-N-(2-oxo-2-((1-(trifluoromethyl)cyclopropyl)amino)ethyl)benzamide] | – | – | +++ (a mite mortality rate greater than or equal to 90% is denoted as "+++") | +++ (a mite mortality rate greater than or equal to 90% is denoted as "+++")
Cc1cc(Cl)cc(C2(C(F)(F)F)CC(c3ccc(C(=O)NCC(=O)NC4(C(F)(F)F)CC4)c(C)c3)=NO2)c1 (centres unmarked) [Example 032, 4-(5-(3-chloro-5-methylphenyl)-5-(trifluoromethyl)-4,5-dihydroisoxazol-3-yl)-2-methyl-N-(2-oxo-2-((1-(trifluoromethyl)cyclopropyl)amino)ethyl)benzamide] | < 50 | > 90 | – | –
COc1cc(Cl)cc(C2(C(F)(F)F)CC(c3ccc(C(=O)NCC(=O)NC4(C(F)(F)F)CC4)c(C)c3)=NO2)c1 (centres unmarked) [Example 033, 4-(5-(3-chloro-5-methoxyphenyl)-5-(trifluoromethyl)-4,5-dihydroisoxazol-3-yl)-2-methyl-N-(2-oxo-2-((1-(trifluoromethyl)cyclopropyl)amino)ethyl)benzamide] | < 50 | > 90 | – | –
Cc1cc(C2=NOC(c3cc(Cl)cc(Cl)c3)(C(F)(F)F)C2)ccc1C(=O)N(C)CC(=O)NC1(C(F)(F)F)CC1 (centres unmarked) [Example 034, 4-(5-(3,5-dichlorophenyl)-5-(trifluoromethyl)-4,5-dihydroisoxazol-3-yl)-N,2-dimethyl-N-(2-oxo-2-((1-(trifluoromethyl)cyclopropyl)amino)ethyl)benzamide] | < 50 | > 90 | – | –
Cc1cc(C2=NOC(c3cc(Cl)cc(Cl)c3)(C(F)(F)F)C2)ccc1C(=O)N[C@H](C)C(=O)NC1(C(F)(F)F)CC1 (stereo partly drawn) [Example 035, 4-(5-(3,5-dichlorophenyl)-5-(trifluoromethyl)-4,5-dihydroisoxazol-3-yl)-2-methyl-N-((R)-1-oxo-1-((1-(trifluoromethyl)cyclopropyl)amino)propan-2-yl)benzamide] | < 50 | 50 to 90 | – | –
Cc1cc(C2=NOC(c3cc(Cl)cc(Cl)c3)(C(F)(F)F)C2)ccc1C(=O)N[C@@H](C)C(=O)NC1(C(F)(F)F)CC1 (stereo partly drawn) [Example 036, 4-(5-(3,5-dichlorophenyl)-5-(trifluoromethyl)-4,5-dihydroisoxazol-3-yl)-2-methyl-N-((S)-1-oxo-1-((1-(trifluoromethyl)cyclopropyl)amino)propan-2-yl)benzamide] | < 50 | < 50 | – | –
Cc1cc(C2=NOC(c3cc(Cl)cc(OC(F)(F)F)c3)(C(F)(F)F)C2)ccc1C(=O)NCC(=O)NC1(C(F)(F)F)CC1 (centres unmarked) [Example 037, 4-(5-(3-chloro-5-(trifluoromethoxy)phenyl)-5-(trifluoromethyl)-4,5-dihydroisoxazol-3-yl)-2-met hyl-N-(2-oxo-2-((1-(trifluoromethyl)cyclopropyl)amino)ethyl)benzamide] | 50 to 90 | > 90 | – | –
O=C(CNC(=O)c1ccc(C2=NOC(c3cc(Cl)cc(Cl)c3)(C(F)(F)F)C2)cc1)NC1(C(F)(F)F)CC1 (centres unmarked) [Example 038, 4-(5-(3,5-dichlorophenyl)-5-(trifluoromethyl)-4,5-dihydroisoxazol-3-yl)-N-(2-oxo-2-((1-(trifluor omethyl)cyclopropyl)amino)ethyl)benzamide] | < 50 | > 90 | – | –
Cc1cc(C2=NOC(c3cc(Cl)cc(Cl)c3)(C(F)(F)F)C2)cc(Cl)c1C(=O)NCC(=O)NC1CC1 (centres unmarked) [Example 040, 2-chloro-N-(2-(cyclopropylamino)-2-oxoethyl)-4-(5-(3,5-dichlorophenyl)-5-(trifluoromethyl)-4,5-dihydroisoxazol-3-yl)-6-methylbenzamide] | < 50 | < 50 | – | –
Cc1cc(C2=NOC(c3cc(Cl)cc(Cl)c3)(C(F)(F)F)C2)c(F)cc1C(=O)NCC(=O)NC1CC1 (centres unmarked) [Example 041, N-(2-(cyclopropylamino)-2-oxoethyl)-4-(5-(3,5-dichlorophenyl)-5-(trifluoromethyl)-4,5-dihydroisoxazol-3-yl)-5-fluoro-2-methylbenzamide] | > 90 | > 90 | – | –
Cc1cc(C2=NOC(c3cc(Cl)cc(Cl)c3)(C(F)(F)F)C2)c(F)cc1C(=O)NCC(=O)NCC(F)(F)F (centres unmarked) [Example 042] | – | – | +++ (a mite mortality rate greater than or equal to 90% is denoted as "+++") | +++ (a mite mortality rate greater than or equal to 90% is denoted as "+++")
Cc1c(C(=O)NCC(=O)NC2CC2)ccc(C2=NOC(c3cc(Cl)cc(Cl)c3)(C(F)(F)F)C2)c1F (centres unmarked) [Example 043, N-(2-(cyclopropylamino)-2-oxoethyl)-4-(5-(3,5-dichlorophenyl)-5-(trifluoromethyl)-4,5-dihydroisoxazol-3-yl)-3-fluoro-2-methylbenzamide] | < 50 | 50 to 90 | – | –
Cc1c(C(=O)NCC(=O)NCC(F)(F)F)ccc(C2=NOC(c3cc(Cl)cc(Cl)c3)(C(F)(F)F)C2)c1F (centres unmarked) [Example 044] | – | – | +++ (a mite mortality rate greater than or equal to 90% is denoted as "+++") | +++ (a mite mortality rate greater than or equal to 90% is denoted as "+++")
